Experiments:
[1] = tested on: peptide-specific CD4+ T cell lines of NMO patients; assay: Lytic marker Granzyme B in supernatant of overnight co-culture with autologous LCL; type: cell-based, human
Text: (§1) PBMCs are isolated from blood samples of patients with NMO on Lymphoprep density gradients. CD14+ monocytes are isolated from these PBMCs by performing positive immunomagnetic separation with CD14 microbeads (Miltenyi Biotec, 130-050-201) according to the supplier recommendations. CD14+ monocytes are differentiated for six days and maturated to generate autologous dendritic cells (mDC). CD19+ B cells are isolated from the CD14− PBMCs fraction by performing positive immunomagnetic separation with CD19 microbeads (Miltenyi Biotec, 130-050-301) according to the supplier recommendations. CD19+B cells are cultured and immortalized with EBV to generate autologous lymphoblastoid cell lines (LCL). Naïve CD4+ T cells are also purified from the CD14− PBMCs fraction by performing negative immunomagnetic separation with naïve CD4+ T cell isolation kit (Miltenyi Biotec, 130-094-131) according to the supplier recommendations. Naïve CD4+ T cells are co-cultured with autologous mDC or LCL in the presence of the peptides of table 1. The CD4+ T cells are re-stimulated periodically, about every 10-12 days, to generate peptide-specific cell lines.
(§2) LCL without (no peptide) or with the peptides of table 1. The expression of the lytic marker Granzyme B is also evaluated by flow cytometry analysis in the supernatant of overnight co-culture with autologous LCL without (no peptide) or with the peptides of table 1. Supernatants are analyzed with a BioLegend kit according to the supplier recommendations.

[2] = tested on: peptide-specific CD4+ T cell lines of NMO patients; assay: Cytokine secretion in CD4+ T cell culture supernatants (LEGENDplex Human Th Panel); type: cell-based
Text: as §1
The ability of the peptides of table 1 to induce cytokines secretion in CD4+ T cells culture supernatants is evaluated by flow cytometry analysis after overnight co-culture at resting state with autologous mDC or LCL without (no peptide) or with the peptides of table 1. Supernatants are analyzed with the LEGENDplex Human Th Panel (13-plex) (BioLegend, 740721) according to the supplier recommendations.

[3] = tested on: autologous LCL (lymphoblastoid cell lines) used as antigen presenting cells; assay: Cytolytic activity: apoptosis of peptide-loaded autologous LCL co-cultured with peptide specific CD4+ T cells (Annexin V); type: cell-based, human
Text: as §1
The cytolytic activity of the peptide specific CD4+ T cells is evaluated by quantifying the apoptosis induced on LCL used as antigen presenting cells. Fluorescently labelled autologous LCL, loaded or not with the peptides, were overnight co-cultured at resting state with peptide specific CD4+ T cells, and LCL apoptosis was quantified by flow cytometry through Annexin V staining. Considering the apoptosis percentage of unloaded LCL, used as control, the percentage of specific apoptosis is calculated as follows: […]

[4] = tested on: peptide-specific CD4+ T cell lines of NMO patients; assay: Flow cytometry of TCR induced surface activation marker CD154 after overnight co-culture with autologous LCL; type: cell-based, human
Text: as §1
The evaluation of the ability of the peptides of table 1 to generate peptide specific CD4+ T cells is evaluated by flow cytometry analysis of the TCR induced surface activation marker CD154 expression after overnight co-culture at resting state with autologous
as §2

[5] = molecular target: T1, soluble HLA-DRB1*03:01 (DR3) human MHC II protein (Homo sapiens, UniProt P01903+P01911, A100K/A102G/A103R/A169T/F55Y/I96L/K41T/L162R/M171V/P40S/Q125H/Q178H/Q39Y/R42S/S66N/T106N/T262R/W38E/Y61H); assay: Soluble phase competition binding assay to MHCII with biotin-labelled control peptide; conditions: competition with biotin-labelled high affinity control peptide, 18h, triplicates (FIGS. 2A-2E)
T1 construct: purchased Benaroya Research Institute, Seattle, US
Method: To test the binding of the immunogenic peptides of table 1 to MHCII molecules, a soluble phase competition assay is performed. The increasing concentrations of the peptides compete with biotin-labelled control peptide (high affinity binder of the corresponding MHCII molecule, Eurogentec, Seraing, Belgium) for binding to the soluble HLA-DRB1*03:01 (also named DR3) human MHC II protein (purchased from the Benaroya Research Institute, Seattle, US). As binding approaches its equilibrium (18h), biotin-labelled peptide/MHC II complexes are captured, separated from unbound reagents, and quantitatively detected by time-resolved fluorescence (Eu^3+ streptavidin, Perkin Elmer, Brussels, Belgium). Since the biotinylated control peptide is responsible for the fluorescence signal (Eu^3+ streptavidin/biotin interaction), the decrease in fluorescence intensity reflects the binding of tested peptides. Data are processed and plotted to ascertain dose-dependent binding properties of the peptides. All the tests are performed in triplicates.

[6] = Oxidoreductase activity of the immunogenic peptides, fluorescent assay (Tomazzolli et al.); type: biochemical; conditions: for time at which oxidoreductase activity reached a plateau: FIG. 1A; for oxidoreductase activity: reduction of self-quenched FITC peptides, mean of duplicates, read in RFU (FIGS. 1A-1E)
Text: The peptides of the invention comprise an MHC class II T-cell epitope or NKT cell epitope of AQP4 with a potential to trigger an immune reaction, and a modified oxidoreductase motif. The reducing activity of the motif sequence in the peptide can be assayed for its ability to reduce a sulfhydryl group such as in the insulin solubility assay wherein the solubility of insulin is altered upon reduction, or with a fluorescence-labelled substrate such as insulin. An example of such assay uses a fluorescent peptide and is described in Tomazzolli et al. (2006) Anal. Biochem. 350, 105-112. Two peptides with a FITC label become self-quenching when they covalently attached to each other via a disulfide bridge. Upon reduction by a peptide in accordance with the present invention, the reduced individual peptides become fluorescent again.
The oxidoreductase activity of the immunogenic peptides of table 1 was determined using a fluorescent assay described in Tomazzolli et al. (2006) Anal. Biochem. 350, 105-112. Two peptides with a FITC label become self-quenching when they form a covalent disulfide bond. Upon reduction by a peptide in accordance with the present invention, the reduced individual FITC labelled peptides emit fluorescence again. The activity is expressed as the mean of duplicates. The results are expressed in Relative Fluorescent Units (RFU).

[7] = P20-specific CD4+ T cell lines NMO-001, NMO-003, NMO-006 (FIGS. 8 and 9)
[8] = culture supernatant of P20-CD4+ cell line from patient NMO-006 (FIG. 5)
[9] = P20-specific CD4+ T cell line, patient NMO-001, after 14 stimulations (FIG. 6)
[10] = P12-specific CD4+ T cell line NMO-001 (FIG. 14)
[11] = P12-specific CD4+ T cell line, patient NMO-001 (FIG. 13)

With “AGGLYEYVFCPDVEFKRRFK [short C-WT T-cell epitope, reference compound]” as the sequence, how does the “effector cells expressing the lytic marker Granzyme B” value [1, 7] read?
The value was “specific increase of effector cells expressing the lytic marker Granzyme B”.

What about the “specific secretion of cytokines (IL-5 and IL-13)” value [2, 8] of the same sequence?
The value was “specific secretion of cytokines (IL-5 and IL-13) induced”.

What about the “cross-reactivity (LCL apoptosis)” value ([3]; CD4+ T cells of patient NMO-001 after 16 stimulations with P20 (FIG. 7)) of the same sequence?
Its value is “lower”.

Which “effector cells expressing the lytic marker Granzyme B” value [1, 7] does the source give for “AGGLYEYVFSPDVEFKRRFK [short-S-WT epitope, reference compound]” here?
Its value is “specific increase of effector cells expressing the lytic marker Granzyme B”.

What about the “reactivation of P20-specific CD4+ T cells (CD154+)” value ([4]; P20-specific CD4+ T cells of NMO-001 patient (FIG. 4)) of the same sequence?
Its value is “could also be reactivated”.

What about the “percentage of specific LCL apoptosis” value [3, 9] of the same sequence?
The value was “increase in the percentage of specific LCL apoptosis”.

Which “binding to HLA-DRB1*03:01” value [5] does the source give for HCPYCAVTVAMVCTRKISIAKK [P6] here?
The value was “less affinity than P12 and P20”.

Which results are given for HCPYCEYVFSPDVEFKRRFK [P20]?
effector cells expressing the lytic marker Granzyme B [1, 7]: specific increase of effector cells expressing the lytic marker Granzyme B; specific secretion of cytokines (IL-5 and IL-13) [2, 8]: specific secretion of cytokines (IL-5 and IL-13) induced; binding to HLA-DRB1*03:01 [5]: bind to HLA-DRB1*03:01 with similar affinity; frequency of effector cells (CD3+CD4+CD154+) ([4]; P20-specific CD4+ T cell lines of NMO patients -001 and -003 after multiple stimulations (FIG. 3)): high frequency of effector cells; percentage of specific LCL apoptosis [3, 9]: increase in the percentage of specific LCL apoptosis; apoptosis of loaded LCL ([3]; P20-specific CD4+ T cell line, patient NMO-003, after 14 stimulations (FIG. 6)): Apoptosis of LCL loaded with P20 was also observed; LCL apoptosis ([3]; co-culture with CD4+ T cells of patient NMO-001 after 16 stimulations with P20 (FIG. 7)): 50%; time at which oxidoreductase activity reached a plateau [6]: 5 min

With HCPYCRENIMVAFKGVWTQAK [P1] as the sequence, how does the “binding to HLA-DRB1*03:01” value [5] read?
Its value is “less affinity than P12 and P20”.

For HCPYCRSQVETDDLILKPGVK [P22], which oxidoreductase activity [6] is on record?
Its oxidoreductase activity is “displayed oxidoreductase activity, although to a lesser extend”.

For HCPYCTRKISIAKSVFYIAAKKK [P12], which “effector cells expressing the lytic marker Granzyme B” value [1, 10] is on record?
Its value is “specific increase of effector cells expressing the lytic marker Granzyme B”.

And the “specific secretion of cytokines (IL-5 and IL-13)” value ([2]; culture supernatant of P12-specific CD4+ cell lines (FIG. 12, NMO-003))?
Its value is “specific secretion of cytokines (IL-5 and IL-13) induced”.

What about the “binding to HLA-DRB1*03:01” value [5] of the same sequence?
Its value is “bind to HLA-DRB1*03:01 with similar affinity”.

And the “frequency of effector cells (CD3+CD4+CD154+)” value ([4]; P12-specific CD4+ T cell lines of NMO patients -001 and -003 after multiple stimulations (FIG. 10))?
Its value is “high frequency of effector cells”.

And the “percentage of specific LCL apoptosis” value [3, 11]?
Its value is “increase in the percentage of specific LCL apoptosis”.

And the “time at which oxidoreductase activity reached a plateau” value [6]?
The value was 5 min.

Which “binding to HLA-DRB1*03:01” value [5] does the source give for HCPYCTVAMVSTRKISIAK [P3] here?
Its value is “less affinity than P12 and P20”.

For “HCPYCVETIFASSDSKRTDVK (HCPYCVFTIFASSDSKRTDVK) [P15]”, which “binding to HLA-DRB1*03:01” value [5] is on record?
Its value is “less affinity than P12 and P20”.

And the oxidoreductase activity [6]?
Its oxidoreductase activity is “displayed oxidoreductase activity, although to a lesser extend”.

Which “binding to HLA-DRB1*03:01” value [5] does the source give for KHCPYCVFTIFASCDSKRTDVK [P18] here?
Its value is “less affinity than P12 and P20”.

Which “effector cells expressing the lytic marker Granzyme B” value [1, 10] does the source give for “KVAMVCTRKISIAKSVFYIAAKK [short-WT epitope, reference compound]” here?
The value was “specific increase of effector cells expressing the lytic marker Granzyme B”.

What about the “reactivation of P12-specific CD4+ T cells (CD154+)” value ([4]; P12-specific CD4+ T cells of NMO-001 patient (FIG. 11)) of the same sequence?
Its value is “could also be reactivated”.

And the “percentage of specific LCL apoptosis” value [3, 11]?
Its value is “increase in the percentage of specific LCL apoptosis”.
